These results are taken from ChEMBL document CHEMBL1201862, “PubChem BioAssay data set” (2004).

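96-well plates; 48 h exposure; 5 concentrations. Endpoints by linear interpolation between flanking doses. Not reached: highest tested concentration assigned. GI50: concentration for 50% inhibition of growth.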 Active and inactive are the calls of the source. No stated cut-off is given here; in the data, active = GI50 up to about 1.1 µM and inactive = higher.

Holding throughout (assay): NCI anticancer screen, dose series, 48 h
For assay [1], the system named is A498.
In assay [2] the test system is A549.
Assay [3] has as its system CAKI-1.
In assay [4] the test system is CCRF-CEM.
Assay [5] has as its system DU-145.
Assay [6] relates to HCT-15.
Assay [7] has as its system HOP-62.
Assay [8] concerns HT-29.
Assay [9] has as its system IGROV-1.
The subject of assay [10] is K562.
The subject of assay [11] is KM12.
Assay [12] relates to MCF7.
In assay [13] the test system is MOLT-4.
The test system of assay [14] is NCI-H23.
For assay [15], the system named is RPMI-8226.
The subject of assay [16] is SF-539.
Assay [17] has as its system SNB-75.
The subject of assay [18] is U-251.
For assay [19], the system named is UACC-62.
The test system of assay [20] is MDA-MB-231.

For `Cc1ccc2c(c1)C/C(=C\c1ccccc1C(=O)O)C2=O`, the GI50 in assay [1] was > 100 µM (inactive); in [2], > 100 µM (inactive); in [3] it was > 100 µM (inactive); in assay [4], > 100 µM (inactive); in [5], > 100 µM (inactive); in assay [6] it was more than 100 µM. Besides, the GI50 is > 100 µM (inactive) in [7]; 40.6 µM (inactive) in assay [8]; > 100 µM (inactive) in [9]; 98.2 µM (inactive) in [10]; > 100 µM (inactive) in assay [11]; > 100 µM (inactive) in assay [12]. In addition, the GI50 in assay [13] is > 100 µM (inactive); in assay [14] it was > 100 µM (inactive); in [15] it was 43.7 µM (inactive); in assay [16], 50.1 µM (inactive); in [17], > 100 µM (inactive); in [18], > 100 µM (inactive). Also, the GI50 in [19] is > 100 µM (inactive).
On to `CC1=C[C@H]([C@H]2C=C(C)C(C(N)=O)=CN2Cc2c(Cl)cccc2Cl)N(Cc2c(Cl)cccc2Cl)C=C1C(N)=O`, for which the GI50 in assay [1] was 55.3 µM (inactive); in [2] it was > 75 µM (inactive); in assay [3], > 75 µM (inactive); in assay [4], 45.4 µM (inactive); in assay [5] it was > 75 µM (inactive); in assay [6], more than 75 µM. In addition, the GI50 in [7] is > 75 µM (inactive); in [8] it was > 75 µM (inactive); in [10], > 75 µM (inactive); in assay [11] it was 55.5 µM (inactive); in [12], > 75 µM (inactive); in assay [20], > 75 µM (inactive). In addition, the GI50 in assay [13] is > 75 µM (inactive); in assay [14], > 75 µM (inactive); in assay [15], 69.7 µM (inactive); in assay [16], > 75 µM (inactive); in [18], > 75 µM (inactive); in assay [19], > 75 µM (inactive).
For `Cc1cc(C)nc(/C(=N\NC(N)=O)C(=O)Nc2nc3ccc(C)cc3s2)c1`, the GI50 in [1] was > 100 µM (inactive); in assay [2], > 100 µM (inactive); in assay [3], > 100 µM (inactive); in [4] it was > 48.1 µM (inactive); in assay [6] it was more than 70 µM; in [7] it was > 100 µM (inactive). Moreover, the GI50 in assay [8] was > 77.3 µM (inactive); in assay [9] it was > 100 µM (inactive); in assay [10], > 61.4 µM (inactive); in assay [11], > 100 µM (inactive); in [13], > 100 µM (inactive); in assay [14], > 100 µM (inactive). The GI50 is > 48.2 µM (inactive) in [15]; > 100 µM (inactive) in [16]; > 100 µM (inactive) in assay [17]; > 100 µM (inactive) in assay [18]; > 100 µM (inactive) in [19].
Turning to `Clc1ccc(-c2ccc(-c3nn4c(CNc5ccccc5)nnc4s3)o2)c(Cl)c1`, the GI50 in assay [1] was > 100 µM (inactive); in assay [2], 72.3 µM (inactive); in assay [3], > 100 µM (inactive); in assay [4], 46.7 µM (inactive); in assay [5] it was > 100 µM (inactive); in assay [6], 48.1 µM. Further, the GI50 is > 100 µM (inactive) in assay [7]; 40.1 µM (inactive) in assay [8]; 22.8 µM (inactive) in assay [9]; 43.7 µM (inactive) in assay [10]; 60 µM (inactive) in [11]; 69.8 µM (inactive) in [20]. Also, the GI50 in [13] is 24 µM (inactive); in assay [14], 53.6 µM (inactive); in assay [15] it was 36.6 µM (inactive); in assay [16], 22.5 µM (inactive); in [17], 50.7 µM (inactive); in assay [18], > 100 µM (inactive).
Turning to `CC1CC(N)=Nc2ccccc2N1` (configuration not stated), the GI50 in assay [2] was > 100 µM (inactive); in assay [3], > 100 µM (inactive); in [4] it was > 100 µM (inactive); in assay [5], > 100 µM (inactive); in assay [6], more than 100 µM; in [7] it was > 100 µM (inactive). Also, the GI50 in [8] was > 100 µM (inactive); in assay [9], 54.2 µM (inactive); in [10] it was > 100 µM (inactive); in [11], > 100 µM (inactive); in [20], > 100 µM (inactive); in [13], > 100 µM (inactive). The GI50 was > 100 µM (inactive) in assay [14]; > 100 µM (inactive) in [15]; 30.1 µM (inactive) in assay [17]; > 100 µM (inactive) in assay [18]; > 100 µM (inactive) in assay [19].
As for `Nc1nc(CCC(=O)Nc2cccc(C(F)(F)F)c2)cc(-c2ccc3ccccc3c2)n1`, the GI50 in [1] is > 100 µM (inactive); in assay [2] it was > 100 µM (inactive); in [3] it was > 100 µM (inactive); in assay [4], > 100 µM (inactive); in [6] it was more than 100 µM; in [7] it was > 100 µM (inactive). Also, the GI50 in assay [8], in assay [9], in [10], in [11], in [13] and in assay [14] was > 100 µM (inactive) in each case. The GI50 in assay [15], in [16], in assay [17], in assay [18] and in assay [19] was > 100 µM (inactive) each time.
For `CCOC(=O)c1sc2nc1CSc1sc(=S)sc1SCc1nc(sc1C(=O)OCC)-c1nc(c(C(=O)OCC)s1)CSc1sc(=S)sc1SCc1nc-2sc1C(=O)OCC`, the GI50 was > 10 µM (inactive) in assay [2]; > 10 µM (inactive) in assay [3]; > 10 µM (inactive) in [4]; more than 10 µM in [6]; > 10 µM (inactive) in assay [7]; > 10 µM (inactive) in assay [8]. Also, the GI50 in [9], in [10], in assay [11], in assay [12], in assay [20] and in assay [13] was > 10 µM (inactive) throughout. In addition, the GI50 in [14], in [15], in assay [16], in [17], in [18] and in assay [19] was > 10 µM (inactive) in each case.
On to `CN(C)C(=S)/N=c1\ssc(=S)n1Cc1cccnc1`, for which the GI50 was 10.1 µM (inactive) in assay [1]; 4.93 µM (inactive) in [2]; 3.16 µM (inactive) in assay [3]; 8.53 µM (inactive) in assay [4]; 1.23 µM in assay [6]; 4.91 µM (inactive) in [7]. In addition, the GI50 in assay [8] was 1.66 µM (inactive); in assay [9], 7.18 µM (inactive); in assay [10], 1.12 µM (active); in assay [11], 1 µM (active); in [12] it was 2.91 µM (inactive); in assay [20], 6.07 µM (inactive). Besides, the GI50 was 6.46 µM (inactive) in [13]; 2.64 µM (inactive) in assay [14]; 3.47 µM (inactive) in [15]; 4.02 µM (inactive) in assay [16]; 1.91 µM (inactive) in assay [17]; 3.38 µM (inactive) in assay [18]. Also, the GI50 in assay [19] is 2.17 µM (inactive).
On to `Cn1cnc([N+](=O)[O-])c1Sc1nc(N)nc2c1ncn2C1OC(CO)C(O)C1O` (configuration not stated), for which the GI50 was 11 µM (inactive) in assay [2]; 6.19 µM (inactive) in [3]; 3.15 µM (inactive) in assay [4]; 2.36 µM (inactive) in assay [5]; 6.84 µM in assay [6]; 1.44 µM (inactive) in assay [7]. Also, the GI50 in [8] is 6.27 µM (inactive); in [9] it was 12.7 µM (inactive); in assay [10], 5.13 µM (inactive); in assay [11] it was 5.51 µM (inactive); in assay [20], 0.783 µM (active); in assay [13], 5 µM (inactive). In addition, the GI50 in [14] was 4.16 µM (inactive); in assay [15], 2.98 µM (inactive); in [16], 2.9 µM (inactive); in assay [17], 6.44 µM (inactive); in [18], 21.7 µM (inactive); in assay [19], 2.53 µM (inactive).
For the compound `N#C/C(=C\c1cc(O)cc(O)c1)C(N)=O`, the GI50 in [1] is > 100 µM (inactive); in assay [2], > 100 µM (inactive); in [3], > 100 µM (inactive); in [4], > 100 µM (inactive); in [6], more than 100 µM; in assay [7] it was > 100 µM (inactive). The GI50 in assay [8] was > 100 µM (inactive); in assay [9], > 100 µM (inactive); in assay [10] it was > 100 µM (inactive); in assay [11] it was 80.5 µM (inactive); in assay [13] it was > 100 µM (inactive); in assay [14], > 100 µM (inactive). Besides, the GI50 is > 100 µM (inactive) in assay [15]; > 100 µM (inactive) in assay [16]; 22 µM (inactive) in [17]; > 100 µM (inactive) in [18]; > 100 µM (inactive) in assay [19].
Turning to `C[C@@H]1O[C@@H](O[C@H]2CC[C@]3(C=O)[C@H]4CC[C@]5(C)[C@@H](C6=CC(=O)OC6)CC[C@]5(O)[C@@H]4CC[C@]3(O)C2)[C@H](O)[C@H](O)[C@H]1O` [CONVALLATOXIN], the GI50 is 5.74e-05 µM (active) in assay [1]; < 0.01 µM (active) in assay [2]; 1.23e-05 µM (active) in assay [3]; < 0.01 µM (active) in assay [4]; 6.65e-06 µM (active) in assay [5]; 4.69e-05 µM in assay [6]. Further, the GI50 in [7] was 1.05e-05 µM (active); in [8] it was 4.78e-05 µM (active); in assay [9] it was < 0.01 µM (active); in assay [10] it was 4.92e-05 µM (active); in [11] it was 8.39e-05 µM (active); in assay [20], 0.00013 µM (active). Further, the GI50 in assay [13] was 6.01e-06 µM (active); in assay [14] it was 9.93e-06 µM (active); in assay [15], 4.45e-05 µM (active); in [16] it was 1.83e-05 µM (active); in assay [17] it was 4.3e-05 µM (active); in [18], 5.58e-05 µM (active). Moreover, the GI50 in [19] is 5.85e-05 µM (active).
